Patent US12252475B2, “Crystal forms of immunomodulators” (Curis, Inc., priority 2017, dated 2025)
≈ marks a conversion by molar mass, not a printed value. Read-outs that look alike come from different tables or passages of the source.

Key:
Assay type in all cases: physicochemical
[1] = Solid stability of anhydrous crystal Form A on storage (XRPD form, TGA, HPLC purity); conditions: for HPLC Purity (area %): solid
Method: (§1) Purity analysis was performed on an Agilent HP1100 series system equipped with a diode array detector and using ChemStation software vB.04.03 using the method detailed below in Table 3.
Thermogravimetric analysis (TGA) data were collected using a TA Q500/Q5000 TGA from TA Instruments. Differential scanning calorimetry (DSC) was performed using a TA Q200/Q2000 DSC from TA Instruments.
About 40 mg of a sample of formula (I) Form A was kept at each corresponding condition for one month without significant changes. […] No significant effect of the shoulder peaks on form or HPLC purity was observed.
Samples of formula (I) anhydrous crystalline Form A were stored as solids at 25° C./60% RH, 30° C./˜56%, and 40° C./75% RH for the time periods listed below. The samples were prepared in duplicate with an offset of 2 weeks. Each replicate was stored in a different container.

[2] = Solution stability of Form A in water/organic solvent mixtures (HPLC purity); conditions: for HPLC purity, API (RRT 1.00): about 10 mg/mL; for chemical purity in solution: time 0, across water/organic solvent mixtures
Method: as §1
Samples of formula (I) anhydrous crystalline Form A were stored as solutions in water mixed with acetonitrile, tetrahydrofuran, isopropyl alcohol, or ethanol at room temperature and 35° C. for 7-8 days. The sample concentration was about 10 mg/mL and was kept stirring.

[3] = Solubility in simulated gastric fluid and pH-adjusted water at room temperature; conditions: thermodynamic from solid
Description: The pH values of the aqueous solutions after the solubility test were 5.13 and 5.15, respectively.

[4] = Equilibrium solubility in water; conditions: for Final Form / solubility at 6 h: Water; for Final Form: solids checked by XRPD; for solubility at 6 h: thermodynamic from solid, equilibrated 6 hrs, HPLC
Method: Equilibrium solubility of formula (I) anhydrous Form A was measured in the water at 20° C. and 30° C. All samples were equilibrated at temperature for 6 hrs, and the solubility of supernatant was measured by HPLC, while the solids were checked by XRPD. (See Table 10.)

[5] = Dynamic vapor sorption (DVS)
[6] = Seed (after ground), 5° C., sealed

Q: For `CC(O)[C@H](NC(=O)N[C@@H](CC(N)=O)c1nc([C@@H](N)CO)no1)C(=O)O` (stereo in doubt) [Form A], which “Final Form” value ([1]; 25° C., 60% RH, 1 month) is on record?
A: Form A

Q: What about the “TGA (%)” value ([1]; 25° C., 60% RH, 1 month) of the same molecule?
A: 0.60%

Q: What about the “Final Form” value ([1]; 25° C., 60% RH, 3 months) of the same molecule?
A: Form A

Q: What about the “TGA (%)” value ([1]; 25° C., 60% RH, 3 months) of the same molecule?
A: 2.8%

Q: What about the “Final Form” value ([1]; 40° C., 75% RH, 1 month) of the same molecule?
A: Form A

Q: What about the “TGA (%)” value ([1]; 40° C., 75% RH, 1 month) of the same molecule?
A: 1.0%

Q: What about the “Final Form” value ([1]; 40° C., 75% RH, 3 months) of the same molecule?
A: Form A

Q: What about the “TGA (%)” value ([1]; 40° C., 75% RH, 3 months) of the same molecule?
A: 1.9%

Q: What about the “Final Form” value ([1]; 60° C., sealed, 1 month) of the same molecule?
A: Form A

Q: What about the “TGA (%)” value ([1]; 60° C., sealed, 1 month) of the same molecule?
A: 0.6%

Q: What about the “Final Form” value ([1]; 60° C., sealed, 3 months) of the same molecule?
A: Form A

Q: And the “TGA (%)” value ([1]; 60° C., sealed, 3 months)?
A: 2.1%

Q: What about the “Final Form” value ([1]; Initial) of the same molecule?
A: Form A

Q: What about the “TGA (%)” value ([1]; Initial) of the same molecule?
A: 0.40%

Q: What about the “Final Form” value [1, 6] of the same molecule?
A: Form A

Q: What about the “TGA (%)” value [1, 6] of the same molecule?
A: 0.4%

Q: And the “solid form and particle morphology after storage” value ([1]; one month and three months at 25° C./60% RH, 40° C./75% RH, and 60° C.)?
A: remained unchanged

Q: What about the “degradation (chemical purity of solid sample) after storage” value ([1]; solid sample of about 40 mg, storage for one month) of the same molecule?
A: no significant degradation was observed

Q: And the “HPLC Purity (area %)” value ([1]; 25° C., 60% RH, 1 month)?
A: 99.83 area %

Q: What about the “HPLC Purity (area %)” value ([1]; 25° C., 60% RH, 3 months) of the same molecule?
A: 99.80 area %

Q: What about the “HPLC Purity (area %)” value ([1]; 40° C., 75% RH, 1 month) of the same molecule?
A: 99.81 area %

Q: And the “HPLC Purity (area %)” value ([1]; 40° C., 75% RH, 3 months)?
A: 99.79 area %

Q: And the “HPLC Purity (area %)” value ([1]; 60° C., sealed, 1 month)?
A: 99.85 area %

Q: And the “HPLC Purity (area %)” value ([1]; 60° C., sealed, 3 months)?
A: 99.74 area %

Q: What about the “HPLC Purity (area %)” value ([1]; Initial) of the same molecule?
A: 99.86 area %

Q: What about the “HPLC purity, API (RRT 1.00)” value ([2]; 35° C., ACN/H2O (1:1, v/v), 0 h) of the same molecule?
A: 99.58%

Q: What about the “HPLC purity, API (RRT 1.00)” value ([2]; 35° C., ACN/H2O (1:1, v/v), 4 h) of the same molecule?
A: 99.44%

Q: And the “HPLC purity, API (RRT 1.00)” value ([2]; 35° C., ACN/H2O (1:1, v/v), 24 h)?
A: 98.42%

Q: And the “HPLC purity, API (RRT 1.00)” value ([2]; 35° C., EtOH/H2O (1:1, v/v), 0 h)?
A: 99.58%

Q: What about the “HPLC purity, API (RRT 1.00)” value ([2]; 35° C., EtOH/H2O (1:1, v/v), 4 h) of the same molecule?
A: 99.47%

Q: What about the “HPLC purity, API (RRT 1.00)” value ([2]; 35° C., EtOH/H2O (1:1, v/v), 24 h) of the same molecule?
A: 99.11%

Q: And the “HPLC purity, API (RRT 1.00)” value ([2]; 35° C., IPA/H2O (1:2, v/v), 0 h)?
A: 99.57%

Q: What about the “HPLC purity, API (RRT 1.00)” value ([2]; 35° C., IPA/H2O (1:2, v/v), 4 h) of the same molecule?
A: 99.35%

Q: What about the “HPLC purity, API (RRT 1.00)” value ([2]; 35° C., IPA/H2O (1:2, v/v), 24 h) of the same molecule?
A: 99.21%

Q: What about the “HPLC purity, API (RRT 1.00)” value ([2]; 35° C., THF/H2O (1:1, v/v), 0 h) of the same molecule?
A: 99.56%

Q: What about the “HPLC purity, API (RRT 1.00)” value ([2]; 35° C., THF/H2O (1:1, v/v), 4 h) of the same molecule?
A: 99.37%

Q: And the “HPLC purity, API (RRT 1.00)” value ([2]; 35° C., THF/H2O (1:1, v/v), 24 h)?
A: 98.30%

Q: What about the “chemical purity in solution” value ([2]; 35° C.) of the same molecule?
A: about 99.6%

Q: And the “HPLC purity, API (RRT 1.00)” value ([2]; RT, ACN/H2O (1:1, v/v), 0 h)?
A: 99.65%

Q: And the “HPLC purity, API (RRT 1.00)” value ([2]; RT, ACN/H2O (1:1, v/v), 4 h)?
A: 99.51%

Q: And the “HPLC purity, API (RRT 1.00)” value ([2]; RT, ACN/H2O (1:1, v/v), 24 h)?
A: 99.24%

Q: And the “HPLC purity, API (RRT 1.00)” value ([2]; RT, EtOH/H2O (1:1, v/v), 0 h)?
A: 99.58%

Q: What about the “HPLC purity, API (RRT 1.00)” value ([2]; RT, EtOH/H2O (1:1, v/v), 4 h) of the same molecule?
A: 99.47%

Q: What about the “HPLC purity, API (RRT 1.00)” value ([2]; RT, EtOH/H2O (1:1, v/v), 24 h) of the same molecule?
A: 99.11%

Q: And the “HPLC purity, API (RRT 1.00)” value ([2]; RT, IPA/H2O (1:2, v/v), 0 h)?
A: 99.59%

Q: What about the “HPLC purity, API (RRT 1.00)” value ([2]; RT, IPA/H2O (1:2, v/v), 4 h) of the same molecule?
A: 99.52%

Q: What about the “HPLC purity, API (RRT 1.00)” value ([2]; RT, IPA/H2O (1:2, v/v), 24 h) of the same molecule?
A: 99.21%

Q: What about the “HPLC purity, API (RRT 1.00)” value ([2]; RT, THF/H2O (1:1, v/v), 0 h) of the same molecule?
A: 99.64%

Q: And the “HPLC purity, API (RRT 1.00)” value ([2]; RT, THF/H2O (1:1, v/v), 4 h)?
A: 99.47%

Q: And the “HPLC purity, API (RRT 1.00)” value ([2]; RT, THF/H2O (1:1, v/v), 24 h)?
A: 99.19%

Q: And the “chemical purity in solution” value ([2]; room temperature)?
A: about 99.6%

Q: What about the solubility ([3]; simulated gastric fluid (SGF), simulated gastric fluid, read-out: solubility in simulated gastric fluid (SGF)) of the same molecule?
A: > 114 mg/mL

Q: And the solubility ([3]; water with pH adjusted by NaOH and HCl, aqueous buffer, pH 7.08 (pH 5.13 after test), read-out: solubility in water solution with pH adjusted by NaOH and HCl)?
A: 87.5 to 117 mg/mL (≈ 243 to 324 mM)

Q: What about the solubility ([3]; water with pH adjusted by NaOH and HCl, aqueous buffer, pH 9.14 (pH 5.15 after test), read-out: solubility in water solution with pH adjusted by NaOH and HCl) of the same molecule?
A: 83.5 to 111 mg/mL (≈ 232 to 309 mM)

Q: And the “Final Form” value ([4]; 20° C.)?
A: Form A

Q: And the “Final Form” value ([4]; 30° C.)?
A: Form A

Q: And the “form change during solubility testing” value ([4]; XRPD, FIG. 9)?
A: No form change was observed

Q: And the solubility at 6 h ([4]; 20° C.)?
A: 125 mg/mL (≈ 347 mM)

Q: And the solubility at 6 h ([4]; 30° C.)?
A: 137 mg/mL (≈ 381 mM)

Q: What about the hygroscopicity ([5]; DVS, up to 80% RH) of the same molecule?
A: slightly hygroscopic

Q: And the “form change during DVS testing” value ([5]; XRPD before and after DVS, FIG. 11)?
A: No form change was observed

Q: What about the “mass change in DVS” value ([5]; up to 80% RH) of the same molecule?
A: about 0.66%
